The text below walks through data of article PMC12645437, “Orthogonal IMiD-Degron Pairs Induce Selective Protein Degradation in Cells” (ACS Chemical Biology, 2025).

Data set [1] deals with T1, ZF-EGFP fusion protein with the HEIP, AEVK, WEIS, or WT ZF degron (Homo sapiens, UniProt Q9UKT9, N149E/Q147H/Q150I/S154P).
T1 construct: The degron spans residues 130–189 of IKZF3; expressed in transfected cells; host or cells: Jurkat, lentivirally transduced, presorted mCherry+
Briefly: Western blot for ZF-EGFP fusion protein. It is filed as cell-based. To be noted: transduced Jurkat, 18 h.

Data set [2] has as its target AEVK mutant ZF degron fused to EGFP (Homo sapiens, UniProt Q96SW2+Q9UKT9, N149E/Q147A/Q150V/S154K). Briefly: Ratiometric EGFP:mCherry flow cytometry degradation assay, 18 h. In general terms: A flow cytometer gives signals particle by particle.
Data set [3] deals with Jurkat cells (TRIM28-transduced and untransduced). The data set is described as follows: CellTiter-Glo cell viability assay. It is filed as cell-based, human. To be noted: 100 pM – 10 μM, 24 h. The protocol: Figure S22. CellTiter-Glo assay to assess cell viability of Jurkat cells lentivirally transduced with TRIM28 with either N-terminal or C-terminal WEIS degron tag (or untagged control) and HiBit peptide tag, then incubated (alongside untransduced Jurkat cells) with a concentration curve of […]
(1 picture or pasted object on this page, not shown here) […]
mixed with the Cas9 RNPs and then electroporated using a 4D-Nucleofector (Lonza) on pulse code CL-120. Estimation of knockout efficiency was performed by PCR amplification of the sgRNA target site using primers described in ‘PCR primers for amplifying sgRNA target site’ below. PCR products were Sanger sequenced and editing efficiency was assessed using the online […]
HiBit and CellTiter-Glo® (CTG) Assays […]
spanning 169 pM–10 μM (final assay concentration). […]
HiBit signal was measured by adding 25 µL of the lytic detection reagent from the Nano-Glo® HiBiT Extracellular Detection System (Promega), prepared as per manufacturer protocol. […] Both assays were read using PHERAstar microplate luminescence reader (BMG Labtech). The data have been expressed as % of DMSO control and represent three independent biological replicates. […]
signal was measured by adding 40 µL of the Nano-Glo lytic detection reagent (Promega),

Chain of AEVK mutant ZF degron fused to EGFP (Q9UKT9 130-189 Q147A/N149E/Q150V/S154K): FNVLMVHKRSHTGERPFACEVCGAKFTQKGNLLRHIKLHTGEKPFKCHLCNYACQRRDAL
Chain of AEVK mutant ZF degron fused to EGFP (Q96SW2 whole entry, the tested form may be a part): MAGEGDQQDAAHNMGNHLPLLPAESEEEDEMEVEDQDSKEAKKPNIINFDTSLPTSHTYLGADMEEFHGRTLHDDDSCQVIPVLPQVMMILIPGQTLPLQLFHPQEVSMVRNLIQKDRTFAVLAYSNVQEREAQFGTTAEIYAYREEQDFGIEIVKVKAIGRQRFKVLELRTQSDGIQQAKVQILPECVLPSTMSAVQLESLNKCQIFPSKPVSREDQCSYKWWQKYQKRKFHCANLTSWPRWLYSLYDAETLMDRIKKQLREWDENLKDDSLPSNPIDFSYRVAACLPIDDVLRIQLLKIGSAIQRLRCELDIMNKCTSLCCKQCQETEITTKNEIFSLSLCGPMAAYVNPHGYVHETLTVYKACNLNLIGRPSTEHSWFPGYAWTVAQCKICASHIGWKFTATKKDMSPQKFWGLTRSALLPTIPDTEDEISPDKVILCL
Chain of AEVK mutant ZF degron fused to EGFP (Q16531 whole entry partner, the tested form may be a part): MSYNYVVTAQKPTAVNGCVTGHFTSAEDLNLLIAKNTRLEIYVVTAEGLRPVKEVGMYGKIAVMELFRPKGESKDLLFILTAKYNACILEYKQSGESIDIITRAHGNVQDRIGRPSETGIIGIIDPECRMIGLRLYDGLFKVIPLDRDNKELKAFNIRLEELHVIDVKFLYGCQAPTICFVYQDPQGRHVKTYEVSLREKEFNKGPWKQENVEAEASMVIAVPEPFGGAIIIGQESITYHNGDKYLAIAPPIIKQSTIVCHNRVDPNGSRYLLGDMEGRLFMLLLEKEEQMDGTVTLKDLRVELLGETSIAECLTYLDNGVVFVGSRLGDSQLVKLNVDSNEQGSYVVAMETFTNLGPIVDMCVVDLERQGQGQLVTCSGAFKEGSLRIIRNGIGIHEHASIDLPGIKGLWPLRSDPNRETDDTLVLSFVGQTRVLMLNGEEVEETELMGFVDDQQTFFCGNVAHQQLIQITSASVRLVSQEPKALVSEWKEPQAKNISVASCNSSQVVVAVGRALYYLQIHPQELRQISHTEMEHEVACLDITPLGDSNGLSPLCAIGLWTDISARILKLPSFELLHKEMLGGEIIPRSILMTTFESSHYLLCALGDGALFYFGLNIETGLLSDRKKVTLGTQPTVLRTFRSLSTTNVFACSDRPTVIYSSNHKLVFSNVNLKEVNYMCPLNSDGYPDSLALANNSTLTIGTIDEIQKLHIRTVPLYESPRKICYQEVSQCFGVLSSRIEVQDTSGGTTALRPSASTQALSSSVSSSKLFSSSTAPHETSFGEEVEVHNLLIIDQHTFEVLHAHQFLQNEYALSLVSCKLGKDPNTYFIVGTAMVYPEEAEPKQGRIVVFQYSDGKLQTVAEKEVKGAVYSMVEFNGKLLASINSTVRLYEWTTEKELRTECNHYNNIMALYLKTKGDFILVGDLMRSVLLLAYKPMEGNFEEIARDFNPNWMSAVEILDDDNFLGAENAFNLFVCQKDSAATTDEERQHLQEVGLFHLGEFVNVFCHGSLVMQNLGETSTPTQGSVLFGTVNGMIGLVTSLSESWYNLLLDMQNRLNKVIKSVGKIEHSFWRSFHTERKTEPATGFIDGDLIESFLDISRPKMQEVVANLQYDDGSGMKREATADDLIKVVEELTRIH
T1 sequence (Q9UKT9 130-189 Q147H/N149E/Q150I/S154P): as the sequence (Q9UKT9 130-189 Q147A/N149E/Q150V/S154K) above, with A18H, V21I, K25P counted along it
T1 sequence (Q96SW2 whole entry partner, the tested form may be a part): as the sequence (Q96SW2 whole entry, the tested form may be a part) above
T1 sequence (Q16531 2-1140 partner): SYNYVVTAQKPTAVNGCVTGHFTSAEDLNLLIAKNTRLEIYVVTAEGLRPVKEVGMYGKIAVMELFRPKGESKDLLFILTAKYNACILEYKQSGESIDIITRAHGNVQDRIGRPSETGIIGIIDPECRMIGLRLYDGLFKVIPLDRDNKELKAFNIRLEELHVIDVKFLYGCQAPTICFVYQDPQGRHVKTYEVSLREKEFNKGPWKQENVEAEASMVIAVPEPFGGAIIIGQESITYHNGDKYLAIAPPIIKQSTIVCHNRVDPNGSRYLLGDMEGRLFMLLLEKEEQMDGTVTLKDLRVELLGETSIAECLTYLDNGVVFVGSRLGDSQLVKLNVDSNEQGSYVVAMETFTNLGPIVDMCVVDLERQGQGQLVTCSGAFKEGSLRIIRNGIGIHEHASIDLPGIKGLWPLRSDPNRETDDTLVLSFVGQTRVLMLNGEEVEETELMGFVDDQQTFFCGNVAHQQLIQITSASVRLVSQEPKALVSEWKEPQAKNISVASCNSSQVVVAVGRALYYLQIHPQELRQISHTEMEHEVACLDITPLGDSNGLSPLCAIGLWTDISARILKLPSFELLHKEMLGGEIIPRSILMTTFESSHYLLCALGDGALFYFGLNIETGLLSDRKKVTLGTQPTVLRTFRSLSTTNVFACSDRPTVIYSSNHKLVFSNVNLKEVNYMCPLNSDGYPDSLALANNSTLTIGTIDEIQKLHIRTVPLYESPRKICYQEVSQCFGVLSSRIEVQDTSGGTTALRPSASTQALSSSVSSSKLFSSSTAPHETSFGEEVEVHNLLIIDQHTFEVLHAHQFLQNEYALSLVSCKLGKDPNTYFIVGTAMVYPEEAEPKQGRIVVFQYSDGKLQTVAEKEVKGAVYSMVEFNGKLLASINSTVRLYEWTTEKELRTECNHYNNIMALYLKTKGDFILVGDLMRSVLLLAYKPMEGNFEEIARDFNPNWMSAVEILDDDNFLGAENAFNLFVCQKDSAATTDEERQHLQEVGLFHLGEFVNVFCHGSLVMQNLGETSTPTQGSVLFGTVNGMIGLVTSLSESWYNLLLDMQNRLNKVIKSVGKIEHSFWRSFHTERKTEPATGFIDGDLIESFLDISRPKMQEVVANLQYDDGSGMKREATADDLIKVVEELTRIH

For the compound `CC(C)(C)c1ccc2c(c1)C(=O)N(C1CCC(=O)NC1=O)C2=O` (centres unmarked) [Compound 19], the “degradation of EGFP tagged with HEIP degron (Western blot)” value in data set [1] is “complete degradation”. In data set [2] (AEVK, Jurkat, 18 h), this compound had a DC50 of 0.0275 µM and a pDC50 of 7.56. Besides, the “Selectivity (WT/mutant)” value in data set [2] (DC50(WT)/DC50(AEVK)) is 28.
For the compound `CN1CCN(c2ccc3c(c2)C(=O)N(C2CCC(=O)NC2=O)C3=O)CC1` (centres unmarked) [Compound 23], the cell viability entry in data set [3] is “did not affect the cell viability”.

Usually DC50 stands for the concentration at which degradation of the target reaches its halfway point. A higher DC50 goes with degradation only at high concentration.
